Measurements published in patent publication US20240173273A1 (priority 2021, published 2024).

How the values were obtained:
Format in all cases: cell-based
SARS-COV-2 [1] = test system: SARS-COV-2
SARS-COV-2 [2] = assay: microbe, parasite or virus in culture
[3] = test system: inflammatory response induced by SARS-COV-2; assay: Inflammatory and immune-sensing gene expression in infected Calu-3a cells; conditions: data not shown
SARS-COV-2 [4] = test system: SARS-COV-2; remark: listed apart in the source
[5] = test system: HECT E3 ligases, ACE2, TMPRSS2; assay: Expression of HECT E3 ligases, ACE2 and TMPRSS2 in Vero E6 and Calu-3a cells (RT-qPCR)

CC(C)(CO)[C@@H](O)C(=O)NCCC(=O)NCCSSCCNC(=O)CCNC(=O)[C@H](O)C(C)(C)CO [pantethine, (2R,2′ R)—N,N′-(3,12-Dioxo-7,8-dithia-4,11-diazatetradecane-1,14-diyl)bis(2,4-dihydroxy-3,3-dimethylbutanamide)]
expression of the viral Spike and Nucleocapsid proteins within infected cells (SARS-COV-2 [1]): reduce significantly | infection of Vero E6 cells by SARS-COV-2 (SARS-COV-2 [2]): reduced significantly and dose dependently | inhibition at 100 µM (SARS-COV-2 [2]; Severe acute respiratory syndrome coronavirus 2, Vero C1008, 72 h, 100 μM, read-out: inhibition of the replication of SARS-COV-2 (Spike protein staining)): ~76% | inhibition at 1000 µM (SARS-COV-2 [2]; Severe acute respiratory syndrome coronavirus 2, Vero C1008, 72 h, 1000 μM, read-out: inhibition of the replication of SARS-COV-2 (Spike protein staining)): ~98% | inflammatory response induced by SARS-COV-2 [3]: reduced | infection of Calu-3a cells by SARS-COV-2 (SARS-COV-2 [4]): reduced significantly and dose dependently | ACE2 and TMPRSS2 expression [5]: no significant effect | HECT E3 ligases expression [5]: no effects | infection-induced increase of TMPRSS2 expression [5]: inhibited | HECT E3 ligase-increase induced by SARS-CoV-2 infection ([5]; infected cells in vitro, data not shown): decreased
